Measurements: patent US7138361B2, “Herbicidal heterocycles” (E. I. du Pont de Nemours and Company, priority 2000, dated 2006)

What was measured:
Assay type in all cases: in vivo
[1] = tested on: Sunflower; test: Test C preemergence; conditions: scale 0 to 100
[2] = tested on: goosegrass (Eleusine indica); test: Test C preemergence; conditions: for Plant response rating (0 to 100), Goosegrass: visual evaluation after 12 to 14 days
Outline: (§1)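 Compounds in non-phytotoxic solvent with surfactant applied preemergence to planted seeds and postemergence to plants at 1- to 4-leaf stage (2–18 cm). Kept in greenhouse 12–14 days, then visually rated against controls on a 0 (no effect) to 100 (complete control) scale.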

[3] = tested on: morningglory (Ipomoea hederacea); test: Test C preemergence
Outline: as §1

[4] = tested on: yellow nutsedge (Cyperus esculentus); test: Test C preemergence
Outline: as §1

[5] = tested on: crabgrass (Digitaria sanguinalis); test: Test C preemergence; conditions: for Plant response rating (0 to 100), Crabgrass: visual evaluation after 12 to 14 days
Outline: as §1

[6] = tested on: lambsquarters (Chenopodium album); test: Test C postemergence
Outline: as §1

[7] = tested on: giant foxtail (Setaria faberii); test: Test C postemergence
Outline: as §1

[8] = tested on: pigweed (Amaranthus retroflexus); test: Test C postemergence
Outline: as §1

[9] = tested on: Surinam grass (Brachiaria decumbens); test: Test C postemergence
Outline: as §1

[10] = tested on: morningglory (Ipomoea hederacea); test: Test C postemergence
Outline: as §1

[11] = tested on: common ragweed (Ambrosia elatior); test: Test C postemergence
Outline: as §1

[12] = tested on: corn (Zea mays); test: Test C postemergence
Outline: as §1

[13] = tested on: bermudagrass (Cynodon dactylon); test: Test C postemergence
Outline: as §1

[14] = Rate 62 g/ha, scale 0 to 100, 0 no effect, 100 complete control
[15] = Rate 125 g/ha, scale 0 to 100, 0 no effect, 100 complete control
[16] = preemergence, Rate 31 g/ha, scale 0 to 100
[17] = preemergence, Rate 250 g/ha, scale 0 to 100, 0 no effect, 100 complete control
[18] = Rate 250 g/ha, scale 0 to 100 (0 no effect, 100 complete control)
[19] = preemergence, Rate 62 g/ha, scale 0 to 100
[20] = preemergence, Rate 500 g/ha, visual evaluation after 12 to 14 days
[21] = Rate 500 g/ha, scale 0 to 100 (0 no effect, 100 complete control)

## CCC(CC)c1ccn(C2CCN(c3ccc(C)c(OC)c3)C2=O)n1 (stereo not shown) [Compound 81]
[1]; Rate 31 g/ha
  Plant response rating, Sunflower: 0
[2]; [14]
  Plant response rating, Goosegrass: 100
[2]; [15]
  Plant response rating, Goosegrass: 100
[2]; [16]
  Plant response rating, Goosegrass: 90
[2]; preemergence, Rate 250 g/ha
  Plant response rating (0 to 100), Goosegrass: 100
[3]; [14]
  Plant response rating, Morningglory: 0
[3]; [15]
  Plant response rating, Morningglory: 20
[3]; [16]
  Plant response rating, Morningglory: 0
[3]; [17]
  Plant response rating, Morningglory: 20
[4]; [14]
  Plant response rating, Nutsedge: 0
[4]; [15]
  Plant response rating, Nutsedge: 0
[4]; [16]
  Plant response rating, Nutsedge: 0
[4]; [17]
  Plant response rating, Nutsedge: 0
[5]; [14]
  Plant response rating, Crabgrass: 100
[5]; [15]
  Plant response rating, Crabgrass: 100
[5]; [16]
  Plant response rating, Crabgrass: 60
[5]; preemergence, Rate 250 g/ha
  Plant response rating (0 to 100), Crabgrass: 100
[6]; Rate 31 g/ha, scale 0 to 100
  Plant response rating, Lambsquarters: 0
[6]; Rate 62 g/ha, scale 0 to 100
  Plant response rating, Lambsquarters: 60
[6]; [18]
  Plant response rating, Lambsquarters: 80
[7]; Rate 31 g/ha, scale 0 to 100
  Plant response rating, Foxtail, Giant: 0
[7]; Rate 62 g/ha, scale 0 to 100
  Plant response rating, Foxtail, Giant: 0
[7]; [15]
  Plant response rating, Foxtail, Giant: 0
[7]; [18]
  Plant response rating, Foxtail, Giant: 0
[8]; Rate 31 g/ha, scale 0 to 100
  Plant response rating, Pigweed: 0
[8]; Rate 62 g/ha, scale 0 to 100
  Plant response rating, Pigweed: 0
[8]; [15]
  Plant response rating, Pigweed: 0
[8]; [18]
  Plant response rating, Pigweed: 60
[9]; Rate 31 g/ha, scale 0 to 100
  Plant response rating, Surinam grass: 0
[9]; Rate 62 g/ha, scale 0 to 100
  Plant response rating, Surinam grass: 0
[9]; [15]
  Plant response rating, Surinam grass: 0
[9]; [18]
  Plant response rating, Surinam grass: 0
[10]; Rate 31 g/ha, scale 0 to 100
  Plant response rating, Morningglory: 50
[10]; Rate 62 g/ha, scale 0 to 100
  Plant response rating, Morningglory: 60
[10]; [15]
  Plant response rating, Morningglory: 80
[10]; [18]
  Plant response rating, Morningglory: 80
[11]; Rate 31 g/ha, scale 0 to 100
  Plant response rating, Ragweed, Common: 0
[11]; Rate 62 g/ha, scale 0 to 100
  Plant response rating, Ragweed, Common: 0
[11]; [15]
  Plant response rating, Ragweed, Common: 0
[11]; [18]
  Plant response rating, Ragweed, Common: 0
[12]; Rate 31 g/ha, scale 0 to 100
  Plant response rating, Corn: 0
[12]; Rate 62 g/ha, scale 0 to 100
  Plant response rating, Corn: 0
[12]; [15]
  Plant response rating, Corn: 0
[12]; [18]
  Plant response rating, Corn: 0
[13]; Rate 31 g/ha, scale 0 to 100
  Plant response rating, Bermudagrass: 0
[13]; Rate 62 g/ha, scale 0 to 100
  Plant response rating, Bermudagrass: 0
[13]; [15]
  Plant response rating, Bermudagrass: 0
[13]; [18]
  Plant response rating, Bermudagrass: 0

## COc1cc(N2CCC(n3ccc(C(C)C)n3)C2=O)ccc1C (stereo not shown) [Compound 85]
[1]; Rate 62 g/ha
  Plant response rating, Sunflower: 40
[2]; [15]
  Plant response rating, Goosegrass: 100
[2]; [19]
  Plant response rating, Goosegrass: 20
[2]; preemergence, Rate 250 g/ha
  Plant response rating (0 to 100), Goosegrass: 100
[2]; preemergence, Rate 500 g/ha
  Plant response rating (0 to 100), Goosegrass: 100
[3]; [15]
  Plant response rating, Morningglory: 90
[3]; [19]
  Plant response rating, Morningglory: 50
[3]; [20]
  Plant response rating (0 to 100), Morningglory: 100
[3]; [17]
  Plant response rating, Morningglory: 90
[4]; [15]
  Plant response rating, Nutsedge: 70
[4]; [19]
  Plant response rating, Nutsedge: 50
[4]; [20]
  Plant response rating (0 to 100), Nutsedge: 90
[4]; [17]
  Plant response rating, Nutsedge: 70
[5]; [15]
  Plant response rating, Crabgrass: 100
[5]; [19]
  Plant response rating, Crabgrass: 100
[5]; preemergence, Rate 250 g/ha
  Plant response rating (0 to 100), Crabgrass: 100
[5]; preemergence, Rate 500 g/ha
  Plant response rating (0 to 100), Crabgrass: 100
[6]; Rate 62 g/ha, scale 0 to 100
  Plant response rating, Lambsquarters: 70
[6]; [15]
  Plant response rating, Lambsquarters: 90
[6]; [18]
  Plant response rating, Lambsquarters: 100
[6]; [21]
  Plant response rating, Lambsquarters: 100
[7]; Rate 62 g/ha, scale 0 to 100
  Plant response rating, Foxtail, Giant: 20
[7]; [15]
  Plant response rating, Foxtail, Giant: 20
[7]; [18]
  Plant response rating, Foxtail, Giant: 40
[7]; [21]
  Plant response rating, Foxtail, Giant: 70
[8]; Rate 62 g/ha, scale 0 to 100
  Plant response rating, Pigweed: 60
[8]; [15]
  Plant response rating, Pigweed: 70
[8]; [18]
  Plant response rating, Pigweed: 90
[8]; [21]
  Plant response rating, Pigweed: 100
[9]; Rate 62 g/ha, scale 0 to 100
  Plant response rating, Surinam grass: 0
[9]; [15]
  Plant response rating, Surinam grass: 20
[9]; [18]
  Plant response rating, Surinam grass: 20
[9]; [21]
  Plant response rating, Surinam grass: 60
[10]; Rate 62 g/ha, scale 0 to 100
  Plant response rating, Morningglory: 60
[10]; [15]
  Plant response rating, Morningglory: 80
[10]; [18]
  Plant response rating, Morningglory: 80
[10]; [21]
  Plant response rating, Morningglory: 90
[11]; Rate 62 g/ha, scale 0 to 100
  Plant response rating, Ragweed, Common: 0
[11]; [15]
  Plant response rating, Ragweed, Common: 20
[11]; [18]
  Plant response rating, Ragweed, Common: 20
[11]; [21]
  Plant response rating, Ragweed, Common: 90
[12]; Rate 62 g/ha, scale 0 to 100
  Plant response rating, Corn: 50
[12]; [15]
  Plant response rating, Corn: 50
[12]; [18]
  Plant response rating, Corn: 50
[12]; [21]
  Plant response rating, Corn: 60
[13]; Rate 62 g/ha, scale 0 to 100
  Plant response rating, Bermudagrass: 0
[13]; [15]
  Plant response rating, Bermudagrass: 0
[13]; [18]
  Plant response rating, Bermudagrass: 80
[13]; [21]
  Plant response rating, Bermudagrass: 90
